Measured values taken from US8106055B2, “Substituted amide compounds” (Gruenenthal GmbH, priority 2007, dated 2012).

Columns and labels:
[1] = biological target: T1, human bradykinin 1 receptor (B1R) (Homo sapiens, UniProt P46663); assay: Functional investigation on the human bradykinin 1 receptor (B1R), Ca2+ FLIPR assay in CHO K1 hB1R cells; format: cell-based; details: CHO-K1, B1R antagonism human; test substance 10 μM; Ca2+ FLIPR, CHO K1 hB1R cells; read-out: B1R Ant. h [10 μM] % Inhibition
T1 construct: expressed in transfected cells; host or cells: CHO K1 cells
T1 sequence (P46663 1-353): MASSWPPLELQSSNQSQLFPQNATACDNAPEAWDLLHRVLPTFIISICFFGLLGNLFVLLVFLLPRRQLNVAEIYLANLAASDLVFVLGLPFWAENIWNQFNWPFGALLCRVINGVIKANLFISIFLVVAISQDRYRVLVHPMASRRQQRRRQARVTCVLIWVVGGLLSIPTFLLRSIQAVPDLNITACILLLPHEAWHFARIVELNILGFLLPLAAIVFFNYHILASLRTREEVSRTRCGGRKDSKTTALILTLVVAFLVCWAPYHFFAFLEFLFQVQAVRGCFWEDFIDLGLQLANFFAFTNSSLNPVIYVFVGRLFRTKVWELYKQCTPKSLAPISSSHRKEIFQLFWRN
How it was run: (§1)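 Stably transfected CHO K1 cells loaded with Fluo-4; FLIPR Ca2+ fluorescence peak (ex 488/em 540 nm). Compound added first (agonism vs Lys-Des-Arg9-bradykinin ≥50 nM human, Des-Arg9-bradykinin 10 μM rat), then after 10-20 min agonist at EC80; antagonism as % inhibition, IC50 from concentration series, n=2-3, N≥2.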

[2] = biological target: T2, bradykinin 1 receptor (B1R) of the rat (Rattus norvegicus, UniProt P97583); assay: Functional investigation on the rat bradykinin 1 receptor (B1R), Ca2+ FLIPR assay in CHO K1 rB1R cells; format: cell-based; details: CHO-K1, B1R antagonism rat; test substance 10 μM; Ca2+ FLIPR, CHO K1 rB1R cells; read-out: B1R Ant. r [10 μM] % Inhibition
T2 construct: expressed in transfected cells; host or cells: CHO K1 cells
T2 sequence (P97583 1-337): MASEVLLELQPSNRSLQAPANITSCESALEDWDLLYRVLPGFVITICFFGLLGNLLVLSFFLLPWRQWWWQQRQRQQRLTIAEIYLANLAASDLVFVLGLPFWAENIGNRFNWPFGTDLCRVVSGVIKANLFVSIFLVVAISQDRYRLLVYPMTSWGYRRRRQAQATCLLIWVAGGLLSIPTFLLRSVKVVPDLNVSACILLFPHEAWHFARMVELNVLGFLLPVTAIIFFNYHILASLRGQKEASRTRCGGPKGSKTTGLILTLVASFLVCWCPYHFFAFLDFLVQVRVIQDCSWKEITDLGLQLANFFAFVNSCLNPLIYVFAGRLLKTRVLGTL
How it was run: as §1

| SMILES | inhibition at 10 µM [1] [%] | inhibition at 10 µM [2] [%] |
| --- | --- | --- |
| CN(C)C(c1cccc(F)c1)C1CCC(NC(=O)COCCN(C)S(=O)(=O)c2ccc(Cl)cc2)CC1 (centres unmarked) [Example 196, 2-(2-(4-chloro-N-methylphenylsulfonamido)ethoxy)-N-(4-((dimethylamino)(3-fluorophenyl)methyl)cyclohexyl)acetamide] | 6 | 27 |
| COc1cc(C)c(S(=O)(=O)N(C)CCOCC(=O)NCCC2CCC(C(c3cccc(F)c3)N(C)C)CC2)c(C)c1 (centres unmarked) [Example 197, N-(2-(4-((dimethylamino)(3-fluorophenyl)methyl)cyclohexyl)ethyl)-2-(2-(4-methoxy-N,2,6-trimethylphenylsulfonamido)ethoxy)acetamide] | 104 | 105 |
| COc1cc(C)c(S(=O)(=O)N2CCC(OCC(=O)NCCC3CCC(C(c4cccs4)N(C)C)CC3)C2)c(C)c1 (centres unmarked) [Example 199, N-(2-(4-((dimethylamino)(thiophen-2-yl)methyl)cyclohexyl)ethyl)-2-(1-(4-methoxy-2,6-dimethylphenylsulfonyl)pyrrolidin-3-yloxy)acetamide] | 104 | 100 |
| COc1cc(C)c(S(=O)(=O)N2CCN(CCOCC(=O)NCCC3CCC(C(c4cccc(F)c4)N(C)C)CC3)CC2)c(C)c1C (centres unmarked) [Example 200, N-(2-(4-((dimethylamino)(3-fluorophenyl)methyl)cyclohexyl)ethyl)-2-(2-(4-(4-methoxy-2,3,6-trimethylphenylsulfonyl)piperazin-1-yl)ethoxy)acetamide] | 73 | -3 |
